This passage reports IC50, LD50 and ED50 results from patent US4775671A, “Imidazodiazepines” (Hoffmann-La Roche Inc., priority 1984, dated 1988).

For series [1], the target named is central benzodiazepine receptors. The series can be described thus: Inhibition of binding of tritiated diazepam at specific benzodiazepine receptors in the cerebral cortex. The following applies: 50 percent inhibition of specific binding of tritiated diazepam. How it is done: The affinity of compounds of general formula I to the central benzodiazepine receptors was determined according to the method described in Life Science 20, 2101-2110 (1977) and Science 198, 849-851 ([…]). According to this method, the inhibition of the binding of tritiated diazepam at the specific benzodiazepine receptors in the cerebral cortex by the respective test substances is ascertained. The IC50 ("50% inhibiting concentration") is that concentration of the respective test substance which brings about a 50 percent inhibition of the specific binding of the tritiated diazepam at the specific benzodiazepine receptors in the cerebral cortex.

Series [2] can be described thus: Acute toxicity, single oral administration to mice. The following applies: mouse, in vivo. From the text: The results which have been obtained with representative members of the class of compound defined by general formula I in the experiments described previously are compiled in the following Table. Moreover, the Table contains data concerning the acute toxicity of some of these compounds (LD50 in mg/kg in the case of single oral administration to mice).

Series [3] relates to spasmodic seizures caused by pentetrazole. Nature of the series: Antipentetrazole test (anticonvulsant). The following applies: Rattus norvegicus, po, 0.5 h; female rats 60-80 g, p.o., 30 minutes before 120 mg/kg pentetrazole i.p.; protects 50% of animals. The series is classed as in vivo. How it is done: The central properties of the compounds of formula I in accordance with the invention can be determined, for example, in the antipentetrazole test which is described hereinafter and which is generally recognized for recording anticonvulsant properties.
In this animal experiment the compound under investigation is administered orally to female rats weighing 60-80 g and 30 minutes later there are administered i.p. 120 mg/kg of pentetrazole, which causes emprosthotonus and tonic stretchings of the fore and/or hind limbs in unprotected experimental animals 1-4 minutes after the injection. Ten experimental animals are used per dosage of test substance. After counting the protected experimental animals the ED50 is determined according to the Probit method. The ED50 is that dosage which protects 50% of the experimental animals from the spasmodic seizures caused by pentetrazole.

The IC50 is the point on the concentration scale where inhibition reaches its midpoint. High values mean a need for much substance, low ones inhibition by little substance. What is called LD50 is the dose expected to kill half of the subjects tested. A higher LD50 goes with lower toxicity. The term ED50 denotes the dose at which the effect has come halfway, by size or by number of responders. Read a low ED50 as an effect at a small dose. Turning to `Cc1noc(-c2ncn3c2[C@@H]2CCCN2C(=O)c2c(Cl)cccc2-3)n1`, the IC50 in series [1] came out at 2.3 nM. The molecule further displayed an LD50 in series [2] of 2000 to 4000 mg/kg. Also, the ED50 in series [3] was 0.08 mg/kg.

In series [1], `Cc1nnc(-c2ncn3c2[C@@H]2CCCN2C(=O)c2c(Cl)cccc2-3)o1` yielded an IC50 of 8.4 nM. The median lethal dose (LD50) in series [2] is 312 to 625 mg/kg. This molecule also returned an ED50 in series [3] of 2.7 mg/kg.

With `Cc1noc(-c2ncn3c2CN(C)C(=O)c2c(Cl)cccc2-3)n1`, the IC50 in series [1] amounted to 3.9 nM. For the same molecule, in series [2], the LD50 was 1250 to 2500 mg/kg. It took a dose of 0.43 mg/kg to reach the 50% effect level in series [3] (ED50).

`O=C1c2c(Cl)cccc2-n2cnc(-c3noc(C(F)(F)F)n3)c2[C@@H]2CCCN12` gave an IC50 in series [1] of 9.6 nM. The ED50 in series [3] was found to be 1.2 mg/kg.

`CN1Cc2c(-c3nc(C4CC4)no3)ncn2-c2cccc(Cl)c2C1=O` showed an IC50 in series [1] of 4.5 nM. This molecule gave an ED50 in series [3] of 0.034 mg/kg.

Consider `O=C1c2c(Cl)cccc2-n2cnc(-c3nc(C4CC4)no3)c2[C@@H]2CCCN12`, for which the IC50 in series [1] stood at 2.2 nM. In series [2], this molecule returned an LD50 of 1250 to 2500 mg/kg. In series [3], this molecule yielded an ED50 of 0.2 mg/kg.

`CN1Cc2c(-c3nc(C4CC4)no3)ncn2-c2ccc(F)cc2C1=O` gave an IC50 in series [1] of 5.6 nM. In series [3], this molecule showed an ED50 of 0.23 mg/kg.

As for `COCc1noc(-c2ncn3c2[C@@H]2CCCN2C(=O)c2c(Cl)cccc2-3)n1`, the IC50 in series [1] is 5.2 nM. The 50% effect level in series [3] (ED50) was put at a dose of 0.39 mg/kg.

With `Cc1noc(-c2ncn3c2C2CCN2C(=O)c2c(Cl)cccc2-3)n1` (racemic), the IC50 in series [1] came to 10 nM. For the same molecule, the 50% effect level in series [3] (ED50) was put at a dose of 0.32 mg/kg.

Molecule `Cc1noc(-c2ncn3c2[C@@H]2CCCN2C(=O)c2c-3ccc(F)c2Cl)n1` [Example 4, (S)-8-chloro-7-fluoro-11,12,13,13a-tetrahydro-1-(3-methyl-1,2,4-oxadiazol-5-yl)-9H-imidazo[1,5-a]pyrrolo[2,1-c][1,4]benzodiazepin-9-one] displayed an IC50 in series [1] of 5.2 nM. This molecule also came in with an LD50 in series [2] of 1250 to 2500 mg/kg. Moreover, in series [3], the ED50 turned out to be 0.082 mg/kg.

In series [1], `Cc1noc(-c2ncn3c2[C@@H]2CCCN2C(=O)c2c(Br)cccc2-3)n1` [Example 5, (S)-8-bromo-11,12,13,13a-tetrahydro-1-(3-methyl-1,2,4-oxadiazol-5-yl)9H-imidazo[1,5-a]pyrrolo[2,1-c][1,4] benzodiazepin-9-one] gave a 50% inhibitory concentration (IC50) of 2.1 nM. This molecule also displayed an LD50 in series [2] of 2500 to 5000 mg/kg. This molecule also yielded an ED50 in series [3] of 0.068 mg/kg.

With `Cc1noc(-c2ncn3c2[C@@H]2CCN2C(=O)c2c-3cccc2C(F)(F)F)n1` [Example 9, (S)-12,12a-dihydro-1-(3-methyl-1,2,4-oxadiazol-5-yl)-8-(trifluoromethyl)-9H,11H-azeto[2,1-c]imidazo[1,5-a][1,4]benzodiazepin-9-one], the IC50 in series [1] was determined as 3.7 nM. In addition, the ED50 in series [3] came to 0.021 mg/kg.

In turn, `CON=Cc1ncn2c1[C@@H]1CCN1C(=O)c1c(Cl)cccc1-2` [Example 23, (S)-8-chloro-12,12a-dihydro-9-oxo-9H,11H-azeto[2,1-c]imidazo[1,5-a][1,4]benzodiazepine-1-carboxaldehyde O-methyl oxime] came in with an IC50 in series [1] of 10 nM. Besides, in series [3], it took a dose of 0.63 mg/kg to reach the 50% effect level (ED50).
